Experimental data as given in ChEMBL document CHEMBL4177616, “Potent anti-melanogenic activity and favorable toxicity profile of selected 4-phenyl hydroxycoumarins in the zebrafish model and the computational molecular modeling studies” (Bioorg Med Chem, 2017).

Key:
[1] = Toxicity in wild type zebrafish embryos assessed as dead embryo at 100 ug/ml treated for 96 hrs post fertilization starting from 6 hrs post fertilization by inverted microscopic analysis relative to control; type: organism-based, Danio rerio; details: in vivo, read-out: Activity
Danio rerio [2] = species on record: Danio rerio; test: Toxicity in wild type zebrafish embryos assessed as normal embryo at 2500 ug/ml treated for 96 hrs post fertilization starting from 6 hrs post fertilization by inverted microscopic analysis relative to control; type: organism-based; details: in vivo
Danio rerio [3] = species on record: Danio rerio; test: Toxicity in wild type zebrafish embryos assessed as growth retardation at 1000 ug/ml treated for 96 hrs post fertilization starting from 6 hrs post fertilization by inverted microscopic analysis relative to control; type: organism-based; details: in vivo
Danio rerio [4] = species on record: Danio rerio; test: Toxicity in wild type zebrafish embryos assessed as growth retardation at 100 ug/ml treated for 96 hrs post fertilization starting from 6 hrs post fertilization by inverted microscopic analysis relative to control; type: organism-based; details: in vivo
Danio rerio [5] = species on record: Danio rerio; test: Toxicity in wild type zebrafish embryos assessed as notochord at 2000 ug/ml treated for 96 hrs post fertilization starting from 6 hrs post fertilization by inverted microscopic analysis relative to control; type: organism-based; details: in vivo
Danio rerio [6] = species on record: Danio rerio; test: Toxicity in wild type zebrafish embryos assessed as notochord at 1000 ug/ml treated for 96 hrs post fertilization starting from 6 hrs post fertilization by inverted microscopic analysis relative to control; type: organism-based; details: in vivo
Danio rerio [7] = species on record: Danio rerio; test: Toxicity in wild type zebrafish embryos assessed as notochord at 100 ug/ml treated for 96 hrs post fertilization starting from 6 hrs post fertilization by inverted microscopic analysis relative to control; type: organism-based; details: in vivo
Danio rerio [8] = species on record: Danio rerio; test: Toxicity in wild type zebrafish embryos assessed as eyes at 2000 ug/ml treated for 96 hrs post fertilization starting from 6 hrs post fertilization by inverted microscopic analysis relative to control; type: organism-based; details: in vivo
Danio rerio [9] = species on record: Danio rerio; test: Toxicity in wild type zebrafish embryos assessed as otoliths at 100 ug/ml treated for 96 hrs post fertilization starting from 6 hrs post fertilization by inverted microscopic analysis relative to control; type: organism-based; details: in vivo
Danio rerio [10] = test: Toxicity in wild type zebrafish embryos assessed as pericardial edema at 1000 ug/ml treated for 96 hrs post fertilization starting from 6 hrs post fertilization by inverted microscopic analysis relative to control; type: organism-based; details: in vivo
Danio rerio [11] = test: Toxicity in wild type zebrafish embryos assessed as pericardial edema at 500 ug/ml treated for 96 hrs post fertilization starting from 6 hrs post fertilization by inverted microscopic analysis relative to control; type: organism-based; details: in vivo
Danio rerio [12] = test: Toxicity in wild type zebrafish embryos assessed as yolk edema at 2500 ug/ml treated for 96 hrs post fertilization starting from 6 hrs post fertilization by inverted microscopic analysis relative to control; type: organism-based; details: in vivo
Danio rerio [13] = test: Toxicity in wild type zebrafish embryos assessed as yolk edema at 1000 ug/ml treated for 96 hrs post fertilization starting from 6 hrs post fertilization by inverted microscopic analysis relative to control; type: organism-based; details: in vivo
Danio rerio [14] = species on record: Danio rerio; test: Toxicity in wild type zebrafish embryos assessed as blood circulation at 1000 ug/ml treated for 96 hrs post fertilization starting from 6 hrs post fertilization by inverted microscopic analysis relative to control; type: organism-based; details: in vivo
Danio rerio [15] = species on record: Danio rerio; test: Toxicity in wild type zebrafish embryos assessed as unhatched embryo at 100 ug/ml treated for 96 hrs post fertilization starting from 6 hrs post fertilization by inverted microscopic analysis relative to control; type: organism-based; details: in vivo
Danio rerio [16] = species on record: Danio rerio; test: Toxicity in wild type zebrafish embryos assessed as skeletal deformities at 2000 ug/ml treated for 96 hrs post fertilization starting from 6 hrs post fertilization by inverted microscopic analysis relative to control; type: organism-based; details: in vivo
Danio rerio [17] = species on record: Danio rerio; test: Toxicity in wild type zebrafish embryos assessed as skeletal deformities at 100 ug/ml treated for 96 hrs post fertilization starting from 6 hrs post fertilization by inverted microscopic analysis relative to control; type: organism-based; details: in vivo
in vivo = details: zebrafish
Description: Toxicity in wild type zebrafish embryos assessed as dead embryo at 6.25 ug/ml treated for 96 hrs post fertilization starting from 6 hrs post fertilization by inverted microscopic analysis relative to control

Tyrosinase (Danio rerio) = biological target: T1, Tyrosinase (Danio rerio) (UniProt A0A8M1PAD4); test: Inhibition of zebrafish embryo tyrosinase assessed as residual activity at 50 ug/ml after 48 hrs relative to control
T1 sequence (whole entry): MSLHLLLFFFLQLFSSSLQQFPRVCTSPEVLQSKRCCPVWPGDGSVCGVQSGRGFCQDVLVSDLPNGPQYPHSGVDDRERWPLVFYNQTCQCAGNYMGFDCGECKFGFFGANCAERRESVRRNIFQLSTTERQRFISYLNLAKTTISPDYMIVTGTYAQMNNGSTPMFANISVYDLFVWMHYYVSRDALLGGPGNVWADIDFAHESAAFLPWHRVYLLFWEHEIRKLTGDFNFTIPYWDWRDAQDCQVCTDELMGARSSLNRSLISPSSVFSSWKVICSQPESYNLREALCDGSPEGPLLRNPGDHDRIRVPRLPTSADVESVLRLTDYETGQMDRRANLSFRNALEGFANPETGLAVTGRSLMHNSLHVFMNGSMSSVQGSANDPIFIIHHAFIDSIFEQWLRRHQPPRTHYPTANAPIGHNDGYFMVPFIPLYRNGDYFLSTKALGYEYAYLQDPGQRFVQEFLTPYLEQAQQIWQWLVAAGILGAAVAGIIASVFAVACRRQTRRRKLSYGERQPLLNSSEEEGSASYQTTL

Compound: O=c1cc(CO)occ1O [KOJIC ACID]
- mortality at 100 ug/ml [1]: 0%
- Activity (Danio rerio [2]): 0%
- Activity (Danio rerio [3]): 0%
- Activity (Danio rerio [4]): 0%
- Activity (Danio rerio [5]): 0%
- Activity (Danio rerio [6]): 0%
- Activity (Danio rerio [7]): 0%
- Activity (Danio rerio [8]): 0%
- Activity (Danio rerio [9]): 0%
- Activity (Danio rerio [10]): 98.33%
- Activity (Danio rerio [11]): 86.67%
- Activity (Danio rerio [12]): 5%
- Activity (Danio rerio [13]): 0%
- Activity (Danio rerio [14]): 0%
- Activity (Danio rerio [15]): 0%
- Activity (Danio rerio [16]): 78.33%
- Activity (Danio rerio [17]): 0%

Compound: Oc1ccc(O)cc1 [HYDROQUINONE]
- mortality at 6.25 ug/ml (in vivo): 0%

Compound: O=c1cc(-c2ccccc2)c2ccc(O)cc2o1
- Activity (Tyrosinase (Danio rerio)): 48%
